Read-outs that look alike come from different tables or passages of the source. Each block holds one compound with its values, some of them ahead of it. Starred links: 1 amine or outer side, 2 acyl side, 3 side chain; linkers in the order of their positions; H or OH if unused. Non-standard residues stand in square brackets, D forms with d. Residues, ends and D or L forms follow the SMILES beside them. Groups on a side chain read outwards from the residue. *: point of attachment. X2 = C/C=C/[C@@H]1O[C@H]([C@@H](/C=C/C=C(\C)C[C@@H](C)/C=C(C)\C=C\[C@H]2CC=CC(=O)O2)N*)C[C@@H](O)[C@@H]1C; X1 = O=C([C@@H](CCCn1nnc2c1CCC1C(CC2)C1COC(=O)[*:3])N[*:1])[*:2]; PABC = O=C(OCc1ccc(N[*:1])cc1)[*:2]; Cit = NC(=O)NCCC[C@H](N)C(=O)O; pGlu = O=C1CC[C@@H](C(=O)O)N1; azaGly = NNC(=O)O
Experiments:
Type in all cases: cell-based, human
[1] = tested on: A-549; assay: cells
Method: (§1) Biological evaluation of the compounds […]
(§2) serial dilutions of the test compound were given to 120 µL of suspended cells (50.000/mL) in wells of 96-well plates. After 5 days of incubation growth inhibition (IC50) was determined using an MTT assay.9
(§3) Table S1:Medium conditions for different cell types.
(§4) Cell type Medium Additives
(§5) L-929 (DSMZ ACC 2) DME medium (high glucose) (Gibco) 10% fetal calf serum (Gibco) SKOV-3 DSMZ ATCC HTB Mc Coys-Medium (Gibco) 10% fetal calf serum (Gibco) […]
(§6) A549 (DSMZ ACC 107) DME medium (high glucose) (Gibco) 10% fetal calf serum (Gibco)

[2] = tested on: KB-3.1; assay: cells
Method: as §1, §2, §3, §4, §5, §6

[3] = tested on: MCF-7; assay: cells
Method: as §1, §2, §3, §4, §5, §6

[4] = tested on: SK-OV-3; assay: cells
Method: as §1, §2, §3, §4, §5, §6

[5] = tested on: KB-3.1 cancer cells; assay: Cell proliferation assay under folate free conditions (MTT); details: KB-3.1, folate receptor-positive, read-out: Antiproliferative activity IC50 of folate-ratjadone conjugates
Method: Cell proliferation assay under folate free conditions
KB 3.1 (DSMZ ACC 158) cells were cultivated at 37 °C and 10 % CO2 in RMPI-medium without folic acid (Gibco) with 10% fetal calf serum (Gibco). 120 µL of suspended cells (100.000/mL) were seeded in wells of 96-well plates and after 24 h at 37 °C and 10 % CO2 the medium was removed, the cells were washed with PBS and RPMI-medium without folic acid (Gibco) + 10% dialyzed fetal calf serum (Sigma) were added to the cells, before after additional 24 h at 37°C and 10 % CO2 60 µL of serial dilutions of the test compound were given to cells. After 1, 2 and 5 days of incubation growth inhibition (IC50) was determined using an […]

[6] = A-549 human lung carcinoma, read-out: Antiproliferative activity IC50
[7] = Homo sapiens, A549, read-out: Antiproliferative activity IC50, A-549 human lung carcinoma
[8] = Homo sapiens, KB 3-1, read-out: Antiproliferative activity IC50, KB-3.1 human cervix carcinoma
[9] = Homo sapiens, MCF7, read-out: Antiproliferative activity IC50, MCF-7 human breast carcinoma
[10] = Homo sapiens, SK-OV-3, read-out: Antiproliferative activity IC50

SMILES: C/C=C/[C@@H]1O[C@H]([C@@H](/C=C/C=C(\C)C[C@@H](C)/C=C(C)\C=C\[C@H]2CC=CC(=O)O2)NC(=O)OCc2ccc(NC(=O)[C@H](CCCNC(N)=O)NC(=O)[C@@H](NC(=O)OCC3C4CCc5nnn(CCC[C@@H](NC(=O)[C@H](Cc6ccc(O)cc6)NC(=O)[C@H](CO)NC(=O)[C@H](Cc6c[nH]c7ccccc67)NC(=O)[C@H](Cc6c[nH]cn6)NC(=O)[C@@H]6CCC(=O)N6)C(=O)N[C@@H](CC(C)C)C(=O)N[C@@H](CCCNC(=N)N)C(=O)N6CCC[C@H]6C(=O)NCC(N)=O)c5CCC43)C(C)C)cc2)C[C@@H](O)[C@@H]1C (stereo partly shown)
IC50 [1, 6]: 23 nM

SMILES: C/C=C/[C@@H]1O[C@H]([C@@H](/C=C/C=C(\C)C[C@@H](C)/C=C(C)\C=C\[C@H]2CC=CC(=O)O2)NC(=O)OCc2ccc(NC(=O)[C@H](CCCNC(N)=O)NC(=O)[C@@H](NC(=O)OCCc3cn(CCC[C@H](NC(=O)[C@H](Cc4ccc(O)cc4)NC(=O)[C@H](CO)NC(=O)[C@H](Cc4c[nH]c5ccccc45)NC(=O)[C@H](Cc4c[nH]cn4)NC(=O)[C@@H]4CCC(=O)N4)C(=O)N[C@@H](CC(C)C)C(=O)N[C@@H](CCCNC(=N)N)C(=O)N4CCC[C@H]4C(=O)NCC(N)=O)nn3)C(C)C)cc2)C[C@@H](O)[C@@H]1C
IC50 [1, 6]: 1200 nM

SMILES: C/C=C/[C@@H]1O[C@H]([C@@H](/C=C/C=C(\C)C[C@@H](C)/C=C(C)\C=C\[C@H]2CC=CC(=O)O2)NC(=O)OCc2ccc(NC(=O)[C@H](CCCNC(N)=O)NC(=O)[C@@H](NC(=O)OCC3C4CCc5nnn(CCC[C@@H](NC(=O)[C@H](Cc6ccc(O)cc6)NC(=O)[C@H](CO)NC(=O)[C@H](Cc6c[nH]c7ccccc67)NC(=O)[C@H](Cc6c[nH]cn6)NC(=O)[C@@H]6CCC(=O)N6)C(=O)N[C@@H](CC(C)C)C(=O)N[C@@H](CCCNC(=N)N)C(=O)N6CCC[C@H]6C(=O)NNC(N)=O)c5CCC43)C(C)C)cc2)C[C@@H](O)[C@@H]1C (stereo partly drawn) ([pGlu]HWSY[X1]([Val-Cit-PABC-X2])LRP[azaGly]-NH2)
IC50 [1, 6]: 12.8 nM

SMILES: C#CCCOC(=O)N[C@@H](C(=O)NC(CCCNC(N)=O)C(=O)Nc1ccc(COC(=O)N[C@H](/C=C/C=C(\C)C[C@@H](C)/C=C(C)\C=C\[C@H]2CC=CC(=O)O2)[C@@H]2C[C@@H](O)[C@H](C)[C@H](/C=C/C)O2)cc1)C(C)C (stereo partly shown) [Compound 26]
IC50 [1, 6]: 25.1 nM
IC50 ([1]; Homo sapiens, A549, A-549 human lung carcinoma, read-out: Antiproliferative activity IC50): 25.1 nM
IC50 ([2]; KB 3-1, KB-3.1 human cervix carcinoma, read-out: Antiproliferative activity IC50): 9.2 nM
IC50 ([3]; Homo sapiens, MCF7, MCF-7 human breast carcinoma, read-out: Antiproliferative activity IC50): 12.5 nM
IC50 ([3]; MCF-7 human breast carcinoma, read-out: Antiproliferative activity IC50): 12.5 nM
IC50 ([4]; Homo sapiens, SK-OV-3, SK-OV-3 human ovarian carcinoma, read-out: Antiproliferative activity IC50): 13.6 nM
IC50 ([4]; SK-OV-3 human ovarian carcinoma, read-out: Antiproliferative activity IC50): 13.6 nM

SMILES: C#CCCC(=O)NCCSSCCC(=O)N[C@H](/C=C/C=C(\C)C[C@@H](C)/C=C(C)\C=C\[C@H]1CC=CC(=O)O1)[C@@H]1C[C@@H](O)[C@H](C)[C@H](/C=C/C)O1 [Compound 29, HCC(CH2)2(CO)-NH-(CH2)2SS(CH2)2(CO)-16R-Aminoratjadone]
IC50 [1, 7]: 0.86 nM
IC50 [2, 8]: 1.86 nM
IC50 [3, 9]: 0.17 nM
IC50 [4, 10]: 1.09 nM

SMILES: C#CCCOC(=O)NC1C[C@@H]([C@H](O)/C=C/C=C(\C)C[C@@H](C)/C=C(C)\C=C\[C@H]2CC=CC(=O)O2)O[C@@H](/C=C/C)[C@H]1C (stereo partly shown) [Compound 34]
IC50 [1, 7]: 5.22 nM
IC50 [2, 8]: 7.23 nM
IC50 [3, 9]: 3.1 nM
IC50 [4, 10]: 4.22 nM

IC50 [1]: 318 nM
IC50 [2]: 1110 nM
IC50 [3]: 47.4 nM
IC50 [4]: 190 nM
SMILES: CC(C)C[C@H](NC(=O)[C@@H](CCCN=[N+]=[N-])NC(=O)[C@H](Cc1ccc(O)cc1)NC(=O)[C@H](CO)NC(=O)[C@H](Cc1c[nH]c2ccccc12)NC(=O)[C@H](Cc1c[nH]cn1)NC(=O)[C@@H]1CCC(=O)N1)C(=O)N[C@@H](CCCNC(=N)N)C(=O)N1CCC[C@H]1C(=O)NCC(N)=O [D-Orn-N3-LHRH]

SMILES: C/C=C/[C@@H]1O[C@H]([C@@H](/C=C/C=C(\C)C[C@@H](C)/C=C(C)\C=C\[C@H]2CC=CC(=O)O2)NC(=O)OCc2ccc(NC(=O)[C@H](CCCNC(N)=O)NC(=O)[C@@H](NC(=O)OCC3C4CCc5nnn(-c6ccc(C(=O)NCCCC[C@H](NC(=O)CC[C@H](NC(=O)CC[C@H](NC(=O)c7ccc(NCc8cnc9nc(N)[nH]c(=O)c9n8)cc7)C(=O)O)C(=O)O)C(=O)OC)cc6)c5CCC43)C(C)C)cc2)C[C@@H](O)[C@@H]1C (stereo partly drawn) [FA-1-Val-Cit-pABA-16R-aminoratjadone]
IC50 ([5]; listed as FA-1-Val-Cit-pABA-16R-Aminoratjadone): 169 nM
IC50 [5]: 169 nM

SMILES: C/C=C/[C@@H]1O[C@H]([C@@H](/C=C/C=C(\C)C[C@@H](C)/C=C(C)\C=C\[C@H]2CC=CC(=O)O2)NC(=O)OCCc2cn(-c3ccc(C(=O)NCCCC[C@H](NC(=O)CC[C@H](NC(=O)CC[C@H](NC(=O)c4ccc(NCc5cnc6nc(N)nc(O)c6n5)cc4)C(=O)O)C(=O)O)C(=O)O)cc3)nn2)C[C@@H](O)[C@@H]1C [FA-6-L-16R-aminoratjadone]
IC50 ([5]; listed as FA-6-L-16R-Aminoratjadone): 150 nM
IC50 [5]: 150 nM

SMILES: C/C=C/[C@@H]1O[C@H]([C@@H](/C=C/C=C(\C)C[C@@H](C)/C=C(C)\C=C\[C@H]2CC=CC(=O)O2)NC(=O)OCc2ccc(NC(=O)[C@H](CCCNC(N)=O)NC(=O)[C@@H](NC(=O)OC[C@@H]3[C@@H]4CCc5nnn(-c6ccc(C(=O)NCCCC[C@H](NC(=O)CC[C@H](NC(=O)CC[C@H](NC(=O)c7ccc(NCc8cnc9nc(N)nc(O)c9n8)cc7)C(=O)O)C(=O)O)C(=O)O)cc6)c5CC[C@@H]43)C(C)C)cc2)C[C@@H](O)[C@@H]1C [FA-6-Val-Cit-pABA-16R-aminoratjadone]
IC50 ([5]; listed as FA-6-Val-Cit-pABA-16R-Aminoratjadone): 223 nM
IC50 [5]: 223 nM

SMILES: C/C=C/[C@@H]1O[C@H]([C@@H](/C=C/C=C(\C)C[C@@H](C)/C=C(C)\C=C\[C@H]2CC=CC(=O)O2)NC(=O)OCCc2cn(CCC[C@H](NC(=O)CC[C@H](NC(=O)CC[C@H](NC(=O)c3ccc(NCc4cnc5nc(N)[nH]c(=O)c5n4)cc3)C(=O)O)C(=O)O)C(=O)O)nn2)C[C@@H](O)[C@@H]1C [FA-7-L-16R-aminoratjadone]
IC50 ([5]; listed as FA-7-L-16R-Aminoratjadone): 190 nM
IC50 [5]: 190 nM

SMILES: C/C=C/[C@@H]1O[C@H]([C@@H](/C=C/C=C(\C)C[C@@H](C)/C=C(C)\C=C\[C@H]2CC=CC(=O)O2)NC(=O)OCc2ccc(NC(=O)[C@H](CCCNC(N)=O)NC(=O)[C@@H](NC(=O)OC[C@@H]3[C@@H]4CCc5nnn(CCC[C@H](NC(=O)CC[C@H](NC(=O)CC[C@H](NC(=O)c6ccc(NCc7cnc8nc(N)nc(O)c8n7)cc6)C(=O)O)C(=O)O)C(=O)O)c5CC[C@@H]43)C(C)C)cc2)C[C@@H](O)[C@@H]1C [FA-7-Val-Cit-pABA-16R-aminoratjadone]
IC50 [5]: 34.3 nM

SMILES: C/C=C/[C@@H]1O[C@H]([C@@H](/C=C/C=C(\C)C[C@@H](C)/C=C(C)\C=C\[C@H]2CC=CC(=O)O2)NC(=O)OCCc2cn(-c3ccc(C(=O)NCCCC[C@H](NC(=O)CC[C@H](NC(=O)c4ccc(NCc5cnc6nc(N)[nH]c(=O)c6n5)cc4)C(=O)O)C(=O)N[C@@H](CCCCN)C(=O)O)cc3)nn2)C[C@@H](O)[C@@H]1C [FA-8-L-16R-aminoratjadone]
IC50 ([5]; listed as FA-8-L-16R-Aminoratjadone): 129 nM
IC50 [5]: 129 nM

SMILES: C/C=C/[C@@H]1O[C@H]([C@@H](/C=C/C=C(\C)C[C@@H](C)/C=C(C)\C=C\[C@H]2CC=CC(=O)O2)NC(=O)OCCc2cn(CCC[C@H](NC(=O)[C@H](Cc3ccc(O)cc3)NC(=O)[C@H](CO)NC(=O)[C@H](Cc3c[nH]c4ccccc34)NC(=O)[C@H](Cc3c[nH]cn3)NC(=O)[C@@H]3CCC(=O)N3)C(=O)N[C@@H](CC(C)C)C(=O)N[C@@H](CCCNC(=N)N)C(=O)N3CCC[C@H]3C(=O)NCC(N)=O)nn2)C[C@@H](O)[C@@H]1C [L-Orn-LHRH-16R-aminoratjadone]
IC50 [1, 6]: 1600 nM

From article PMC6540907, “The nuclear export inhibitor aminoratjadone is a potent effector in extracellular-targeted drug conjugates” (Chemical Science, 2019)
